Test results reported in patent publication US10844044B2 (Vanderbilt University, priority 2018, dated 2020).
Read-outs that look alike come from different tables or passages of the source.

What was measured:
[1] = tested on: MV4:11 human cancer cell lines; test: Anti-proliferative activity, CellTiter-Glo viability assay, 7 day protocol; format: cell-based; settings: MV4:11 cells, 7 day incubation, read-out: GI50 on cellular proliferation of MV4:11 human cancer cell lines
Summary of the method: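 Luminescent CellTiter-Glo readout after 7-day compound exposure of MV4:11 cells plated at 3600 cells/ml (final DMSO 0.1%). GI50 derived from three biological × three technical replicates, reported as mean ± S.E.M.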

[2] = target: WDR5 (Homo sapiens (Human), UniProt P61964); test: TR-FRET binding assay (displacement of 10mer-Thr-FAM probe from WDR5)
[3] = read-out: Ki for Inhibition of WDR5 by TR-FRET assay
[4] = read-out: Ki for Inhibition of WDR5 by TR-FRET assay, TR-FRET, 10mer-Thr-FAM probe, WDR5-His tag 2 nM, pH 7.0

Row | Compound | GI50 ([1]; Homo sapiens, MV4-11, 168 h) [nM] | Ki [2, 4] [nM] | further results
1 | N=C1SCCN1Cc1cc(C(=O)N[C@H](c2ccc(Cl)c(Cl)c2)C2CC2)cc(-c2ccc(F)cc2OC(F)F)c1 [Example 309, (S)—N-(Cyclopropyl(3,4-dichlorophenyl)methyl)-2′-(difluoromethoxy)-4′-fluoro-5-((2-iminothiazolidin-3-yl)methyl)-[1,1′-biphenyl]-3-carboxamide] | 960 |  | Ki [2, 3]: 0.77 nM
2 | Cc1ccnc([C@@H](NC(=O)c2cc(Cn3ccoc3=N)cc(-c3ccc(F)cc3C)c2)C2CC2)c1 [Example 247, (S)—N-(Cyclopropyl(4-methylpyridin-2-yl)methyl)-4′-fluoro-5-((2-iminooxazol-3(2H)-yl)methyl)-2′-methyl-[1,1′-biphenyl]-3-carboxamide] | 270 | 0.14 | 
3 | Cc1cc([C@@H](NC(=O)c2cc(Cn3ccn(C)c3=N)cc(C3CC3)c2)C2CC2)ccc1F [Example 139, (S)-3-Cyclopropyl-N-(cyclopropyl(4-fluoro-3-methylphenyl)methyl)-5-((2-imino-3-methyl-2,3-dihydro-1H-imidazol-1-yl)methyl)benzamide] | 730 |  | Ki [2, 3]: 0.18 nM
4 | Cc1cc([C@@H](NC(=O)c2cc(Cn3ccn(C)c3=N)cc(-c3cn(C)nc3C(F)(F)F)c2)C2CC2)ncc1F [Example 205, (S)—N-(Cyclopropyl(5-fluoro-4-methylpyridin-2-yl)methyl)-3-((2-imino-3-methyl-2,3-dihydro-1H-imidazol-1-yl)methyl)-5-(1-methyl-3-(trifluoromethyl)-1H-pyrazol-4-yl)benzamide] | < 100 | < 0.1 | 
5 | Cc1cc([C@@H](NC(=O)c2cc(Cn3ccoc3=N)cc(-c3ccc(F)cc3Cl)c2)C2CC2)ccc1F [Example 248, (S)-2′-Chloro-N-(cyclopropyl(4-fluoro-3-methylphenyl)methyl)-4′-fluoro-5-((2-iminooxazol-3(2H)-yl)methyl)-[1,1′-biphenyl]-3-carboxamide] | 120 | < 0.1 | 
6 | COc1cc(OC)cc([C@@H](NC(=O)c2cc(Cn3ccoc3=N)cc(-c3ccc(F)cc3Cl)c2)C2CC2)c1 (stereo in doubt) [Example 249, 2′-Chloro-N-(cyclopropyl(3,5-dimethoxyphenyl)methyl)-4′-fluoro-5-((2-iminooxazol-3(2H)-yl)methyl)-[1,1′-biphenyl]-3-carboxamide] | 370 | < 0.1 | 
7 | COc1ccnc(CNC(=O)c2cc(Cn3ccn(C)c3=N)cc(-c3ccncc3C)c2)c1 [Example 8, 3-((2-Imino-3-methyl-2,3-dihydro-1H-imidazol-1-yl)methyl)-N-((4-methoxypyridin-2-yl)methyl)-5-(3-methylpyridin-4-yl)benzamide] | 170 | 0.27 | 
8 | Cc1cc([C@@H](NC(=O)c2cc(CN3CCOC3=N)cc(-c3ccc(F)cc3OC(F)F)c2)C2CC2)ccc1F [Example 273, (S)—N-(Cyclopropyl(4-fluoro-3-methylphenyl)methyl)-2′-(difluoromethoxy)-4′-fluoro-5-((2-iminooxazolidin-3-yl)methyl)-[1,1′-biphenyl]-3-carboxamide] | 140 | < 0.1 | 
9 | COc1cc(CNC(=O)c2cc(Cn3ccn(C)c3=N)nc(-c3ccc(F)cc3C)c2)cc(OC)c1 [Example 365, N-(3,5-Dimethoxybenzyl)-2-(4-fluoro-2-methylphenyl)-6-((2-imino-3-methyl-2,3-dihydro-1H-imidazol-1-yl)methyl)isonicotinamide] | 6000 | 0.55 | 
10 | CCOC(=O)/N=c1\n(C)ccn1Cc1cc(C(=O)NCc2ccc(Cl)c(Cl)c2)cc(-c2ccc(F)nc2C)c1 [Example 122, Ethyl (1-(3-((3,4-dichlorobenzyl)carbamoyl)-5-(6-fluoro-2-methylpyridin-3-yl)benzyl)-3-methyl-1,3-dihydro-2H-imidazol-2-ylidene)carbamate] | 4200 |  | Ki [2, 3]: > 33 nM
11 | CN1CCN(Cc2cc(C(=O)N[C@H](c3ccc(F)c(Cl)c3)C3CC3)cc(-c3cccnc3C(F)(F)F)c2)C1=N [Example 219, (S)—N-((3-chloro-4-fluorophenyl)(cyclopropyl)methyl)-3-((2-imino-3-methylimidazolidin 1-yl)methyl)-5-(2-(trifluoromethyl)pyridin-3-yl)benzamide] | < 100 | < 0.1 | 
12 | COc1cc(CNC(=O)c2cc(Cn3ccoc3=N)cc(-c3ccc(F)cc3C)c2)cc(OC)c1 [Example 229, N-(3,5-Dimethoxybenzyl)-4′-fluoro-5-((2-iminooxazol-3(2H)-yl)methyl)-2′-methyl-[1,1′-biphenyl]-3-carboxamide] | 550 |  | Ki [2]: 0.21 nM
13 | CCn1cc(-c2cc(Cn3ccn(C)c3=N)cc(C(=O)NCc3ccc(F)c(C)c3)c2)c(C(F)(F)F)n1 [Example 198, 3-(1-Ethyl-3-(trifluoromethyl)-1H-pyrazol-4-yl)-N-(4-fluoro-3-methylbenzyl)-5-((2-imino-3-methyl-2,3-dihydro-1H-imidazol-1-yl)methyl)benzamide] | < 100 | < 0.1 | 
14 | CCn1cc(-c2cc(Cn3ccsc3=N)cc(C(=O)N[C@H](c3ccc(F)c(OC)c3)C3CC3)c2)c(C(F)(F)F)n1 [Example 328, (S)—N-(Cyclopropyl(4-fluoro-3-methoxyphenyl)methyl)-3-(1-ethyl-3-(trifluoromethyl)-1H-pyrazol-4-yl)-5-((2-iminothiazol-3(2H)-yl)methyl)benzamide] | < 100 | < 0.1 | 
15 | Cc1cc(CNC(=O)c2cc(Cn3ccn(C)c3=N)cc(OC(F)(F)F)c2)ccc1Cl [Example 147, N-(4-Chloro-3-methylbenzyl)-3-((2-imino-3-methyl-2,3-dihydro-1H-imidazol-1-yl)methyl)-5-(trifluoromethoxy)benzamide] | 840 | 0.37 | 
16 | Cc1cc(CNC(=O)c2cc(Cn3ccn(C)c3=N)cc(-c3c(C)ccc4[nH]ncc34)c2)ccc1Cl [Example 33, N-(4-Chloro-3-methylbenzyl)-3-((2-imino-3-methyl-2,3-dihydro-1H-imidazol-1-yl)methyl)-5-(5-methyl-1H-indazol-4-yl)benzamide] | 4900 | 0.99 | 
17 | N—((S)-Cyclopropyl(4-fluoro-3-methylphenyl)methyl)-2-ethoxy-5-((3-fluoro-2-iminopyridin-1(2H)-yl)methyl)-3-(1-methyl-3-(trifluoromethyl)-1,3-dihydro-2λ2-pyrazol-4-yl)benzamide [Example 348] |  |  | GI50 [1]: < 100 nM; Ki [2, 3]: < 0.1 nM
18 | Cc1cc([C@@H](NC(=O)c2cc(Cn3cccc(F)c3=N)cc(-c3cccnc3C(F)(F)F)c2)C2CC2)ccc1F [Example 350, (S)—N-(Cyclopropyl(4-fluoro-3-methylphenyl)methyl)-3-((3-fluoro-2-iminopyridin-1(2H)-yl)methyl)-5-(2-(trifluoromethyl)pyridin-3-yl)benzamide] | 140 | 0.12 | 
19 | CCOc1c(C(=O)N[C@H](c2ccc(F)c(C)c2)C2CC2)cc(Cn2cc(F)ccc2=N)cc1-c1cn(C)nc1C(F)(F)F [Example 349, (S)—N-(Cyclopropyl(4-fluoro-3-methylphenyl)methyl)-2-ethoxy-5-((5-fluoro-2-iminopyridin-1(2H)-yl)methyl)-3-(1-methyl-3-(trifluoromethyl)-1H-pyrazol-4-yl)benzamide] |  |  | GI50 ([1]; Homo sapiens, 168 h): < 100 nM; Ki [2, 3]: < 0.1 nM
20 | Cn1cc(-c2cc(Cn3ccn(C)c3=N)cc(C(=O)N[C@H](c3ccc(Cl)c(Cl)c3)C3CC3)c2)c(C(F)(F)F)n1 [Example 211] | < 100 | < 0.1 | 
21 | Cc1cc([C@@H](NC(=O)c2cc(CN3CCOC3=N)cc(-c3cn(C)nc3C(F)(F)F)c2)C2CC2)ncc1F [Example 300, (S)—N-(Cyclopropyl(5-fluoro-4-methylpyridin-2-yl)methyl)-3-((2-iminooxazolidin-3-yl)methyl)-5-(1-methyl-3-(trifluoromethyl)-1H-pyrazol-4-yl)benzamide] | < 100 | < 0.1 | 
22 | Cn1ccn(Cc2cc(C(=O)NC(CC(=O)O)c3ccc(Cl)c(Cl)c3)cc(-c3ccc(F)cc3C(F)(F)F)c2)c1=N (centres unmarked) [Example 84, 3-(3,4-Dichlorophenyl)-3-(4′-fluoro-5-((2-imino-3-methyl-2,3-dihydro-1H-imidazol-1-yl)methyl)-2′-(trifluoromethyl)-[1,1′-biphenyl]-3-carboxamido)propanoic acid] | 2100 | 0.12 | 
23 | CCOc1c(C(=O)N[C@@H](C)c2ccc(F)c(C)c2)cc(Cn2ccn(C)c2=N)cc1-c1cn(C)nc1C(F)(F)F [Example 209, (S)-2-Ethoxy-N-(1-(4-fluoro-3-methylphenyl)ethyl)-5-((2-imino-3-methyl-2,3-dihydro-1H-imidazol-1-yl)methyl)-3-(1-methyl-3-(trifluoromethyl)-1H-pyrazol-4-yl)benzamide] | < 100 | < 0.1 | 
24 | N=C1OCCN1Cc1cc(C(=O)N[C@H](c2ccc(Cl)c(F)c2)C2CC2)cc(-c2ccc(F)cc2Cl)c1 [Example 301, (S)-2′-Chloro-N-((4-chloro-3-fluorophenyl)(cyclopropyl)methyl)-4′-fluoro-5-((2-iminooxazolidin-3-yl)methyl)-[1,1′-biphenyl]-3-carboxamide] | 270 | < 0.1 | 
25 | CCn1cc(-c2cc(Cn3ccn(C)c3=N)cc(C(=O)NCc3ccc(=O)n(C)c3)c2)c(C(F)(F)F)n1 [Example 200, 3-(1-Ethyl-3-(trifluoromethyl)-1H-pyrazol-4-yl)-5-((2-imino-3-methyl-2,3-dihydro-1H-imidazol-1-yl)methyl)-N-((1-methyl-6-oxo-1,6-dihydropyridin-3-yl)methyl)benzamide] | 710 | 0.15 | 
